From patent EP1255553B1 (Stegram Pharmaceuticals Limited, priority 2000, dated 2001)
Entries after “also recorded” stand apart in the source; their conditions may differ. Like-named read-outs stand apart in the source and are kept apart here.

What was measured:
[1] = test system: oestrogen response element driven GFP gene in MCF-7 breast cancer cell line; experiment: Oestrogen reporter plasmid xTG (GFP) transcriptional activity in MCF-7 cells; format: cell-based; conditions: compound at 10^-6M plus E2 at 10^-8M; MCF-7 transiently transfected with xTG for three days
Excerpt: XTG consists of a oestrogen response element. Upstream of a simple TATA promoter which together drive transcription of the GFP gene from the jellyfish Aequorea victoria. The xERE sequence is made up of the following - GGTCA CAG TGACC […] (SEQUENCE ID NO: 1)
The GFP gene - from GFPuv was supplied by Clontech (Clontech Laboratories, Inc., 1020 East Meadow Circle, Palo Alto, CA 94303-4230, USA)
E2 was used at a concentration of 10^-8M while all other compounds were used at 10^-6M. All ligands were added to cell media during transfection.

[2] = advanced breast cancer, cited from earlier work
MCF-7 cells = experiment: Thymidine labeling of MCF-7 cells; format: cell-based
Procedure: MCF-7 cells were plated out in multiwell dishes and grown for 24 hours in serum free medium (MEM). […] Radiolabelled thymidine was added to each well ([…]) and cells were then cultured for a further 24 hours. At the end of this period the medium was aspirated and the cultured cells were rinsed 3-times with cold buffer solution(50mm Tris-HCl, pH 7.4). The cells were then dissolved in 1ml of 0.1N NaOH and 0.5ml of this solution was mixed with 2.5ml of Scintillation cocktail and the intracellular radioactivity of ^3H was measured with a liquid scintillation counter.

[3] = test system: oestrogen receptor isoforms; experiment: Isoelectric focusing (IEF) of 3H oestradiol binding to oestrogen receptor isoforms in tissue cytosol; design: species or system rat; conditions: Trilostane 10 micromolar, 3H oestradiol 5nM
[4] = test system: rat prostate oestrogen receptors; experiment: Scatchard analysis of tritiated oestradiol binding, rat prostate; design: dose or concentration left out as unconfirmed; conditions: Figure 3
Procedure: (§1) Using tissue, snap frozen at time of excision, cytosols were prepared by dismembration using a Braun II Mikrodismembrator. Frozen tissue was minced and pulverised. The resultant powder was resuspended in 1-mm phosphate buffer containing 10% (v/v) glycerol, 1.5mm EDTA, 10mM monothioglycerol, 20mM Sodium molybdate, aprotinin (1ug/ml) and STI (1ug/ml) and phenyl methyl sulfonyl fluoride (30ug/ml) at pH 7.4 by stirring for 15 minutes at 4°C. This suspension was centrifuged at 100,000g for 1 hour at 4°C and the supernantant was used for competition analysis.
(§2) After overnight incubation at 4°C assay tubes were incubated with DCC as above to remove free steroid and aliquots of the resultant supernatant were incubated with toluene based scintillant and counted on a Scintillation Counter. Data obtained was analysed according to the method of Scatchard.

[5] = test system: oestrogen receptor isoforms in rat uterus; experiment: Tritiated tamoxifen binding to oestrogen receptor isoforms (IEF); conditions: Figure 5, test compound 10 micromolar, tritiated tamoxifen 10^-6M
Procedure: as §1
After overnight incubation free steroid was separated from bound by incubating with dextran coated charcoal (0.25% w/v charcoal, 0.025% w/v Dextran T70 in 10mM Tris 1.5mM EDTA at pH 7.4) for 10 mins at 4°C. The DCC was pelleted by centrifugation (10,000g for 10 mins) and aliquots of the supernatant were used for IEF separation.
Isoelectric focusing (IEF) gels were cast in slabs of size 125 x 260 mm and separation was conducted along either the short side (short run) or the long side (long run) of the gel. […]
After DCC extraction, aliquots (270ul) of the radioactive supernatant (3 mg protein/ml) derived from SSD assay were loaded near the cathode. […] After the run the gels were cut into 2.5 mm slices and each slice was incubated with 5ml scintillation cocktail for 24h at room temperature and radioactivity assayed.

[6] = test system: rat uterine oestrogen receptors; experiment: Scatchard analysis of tritiated oestradiol binding, rat uterus; conditions: Figure 2, Trilostane at 10micromolar
Procedure: as §1, §2

[7] = biological target: oestrogen receptor present in MCF-7 breast cancer cell extracts / oestrogen response element (Homo sapiens, UniProt P03372); experiment: Electrophoretic mobility shift assay (EMSA) of ER-ERE complex formation in extracts of treated MCF-7 cells; format: cell-based; conditions: MCF7, 24 h, read-out: ER-ERE complex formation
[8] = cited from earlier work

Sequence of oestrogen receptor present in MCF-7 breast cancer cell extracts / oestrogen response element (P03372 whole entry): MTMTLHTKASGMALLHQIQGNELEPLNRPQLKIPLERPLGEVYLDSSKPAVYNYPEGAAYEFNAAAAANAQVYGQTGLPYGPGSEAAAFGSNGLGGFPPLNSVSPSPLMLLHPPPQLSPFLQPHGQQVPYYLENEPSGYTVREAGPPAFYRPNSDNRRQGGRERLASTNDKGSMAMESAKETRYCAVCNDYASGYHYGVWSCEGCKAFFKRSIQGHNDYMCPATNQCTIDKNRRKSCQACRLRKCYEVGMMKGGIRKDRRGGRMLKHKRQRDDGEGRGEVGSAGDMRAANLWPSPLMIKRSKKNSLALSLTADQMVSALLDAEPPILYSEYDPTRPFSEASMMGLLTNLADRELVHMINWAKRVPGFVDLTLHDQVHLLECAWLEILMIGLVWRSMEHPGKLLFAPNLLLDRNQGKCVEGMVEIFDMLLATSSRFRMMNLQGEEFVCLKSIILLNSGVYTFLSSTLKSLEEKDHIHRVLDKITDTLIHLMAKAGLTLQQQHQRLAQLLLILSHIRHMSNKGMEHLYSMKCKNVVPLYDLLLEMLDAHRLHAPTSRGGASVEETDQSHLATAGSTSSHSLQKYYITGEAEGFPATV

Compound: O=C(c1ccc(OCCN2CCCCC2)cc1)c1c(-c2ccc(O)cc2)sc2cc(O)ccc12 [raloxifene]
- E2-driven transactivation / transcription of GFP [1]: reduced E2-driven transactivation

Compound: C[C@]12CC[C@H]3[C@@H](CC[C@@]45O[C@@H]4C(O)=C(C#N)C[C@]35C)[C@@H]1CC[C@@H]2O [Trilostane, (4α,5α-17β)-4,5-epoxy-3,17-dihydroxyandrost-2-ene-2carbonitrile]
- response rate ([2]; Ingle J.N. et al 1990): 38%
- response rate ([2]; Williams C.J. et al 1993): 29%
- blocking of the oestradiol-induced increase in thymidine labeling (MCF-7 cells; E2+T: Oestradiol 10^-8 M and Trilostane 10µM, 24 hours): completely blocked
- inhibition at 10 µM (MCF-7 cells; Homo sapiens, MCF7, 24 h, read-out: inhibition of thymidine uptake of MCF-7 cells compared with control): 31%
- binding of oestrogen onto the oestrogen receptor isoforms [3]: modulated the binding of oestrogen onto all the oestrogen receptor isoforms but principally onto the pI 6.3 isoform
- concentration of total receptor (x axis intercept of Scatchard plot) [4]: increases the concentration of total receptor; also recorded: an increase in receptor concentration
- E2-driven transactivation / transcription of GFP [1]: reduced transcription of GFP
- tritiated tamoxifen binding to oestrogen receptor isoforms [5]: increased tritiated tamoxifen binding to oestrogen receptor isoforms
- concentration of total receptor (X axis intercept of Scatchard plot) [6]: increases the apparent affinity of oestrogen binding (given by the slope of the regression lines) and the concentration of total receptor

Compound: C[C@]12CC[C@@H]3c4ccc(O)cc4CC[C@H]3[C@@H]1CC[C@@H]2O [oestradiol]
- activation at 0.01 µM (MCF-7 cells; Homo sapiens, MCF7, 24 h, read-out: increase in thymidine labeling compared to control): 15%

Compound: C[C@]12CC[C@H]3[C@@H](CC[C@@]45O[C@@H]4C(=O)[C@H](C#N)C[C@]35C)[C@@H]1CCC2=O [keto-trilostane]
- tritiated tamoxifen binding to oestrogen receptor isoforms [5]: increased tritiated tamoxifen binding to oestrogen receptor isoforms
- activity at 10 µM [7]: 68%

Compound: CC/C(=C(\c1ccccc1)c1ccc(OCCN(C)C)cc1)c1ccccc1 [tamoxifen]
- reduction of the risk of invasive breast cancer ([8]; all women, two-sided P<.00001): 49%
- occurrence of oestrogen receptor-negative tumors ([8]; in vivo): no difference
- reduction of the occurrence of oestrogen receptor-positive tumors ([8]; in vivo): 69%
- cumulative incidence of invasive breast cancer ([8]; through 69 months of follow-up, tamoxifen group): 22.0 per 1000 women
- reduction of the risk of noninvasive breast cancer ([8]; two-sided P<.002): 50%
- decreased risk of invasive breast cancer ([8]; women aged 49 years or younger): 44%
- decreased risk of invasive breast cancer ([8]; women aged 50-59 years): 51%
- decreased risk of invasive breast cancer ([8]; women aged 60 years or older): 55%
- decreased risk of invasive breast cancer ([8]; women with a history of atypical breast hyperplasia): 86%
- decreased risk of invasive breast cancer ([8]; women with a history of breast lobular carcinoma in situ): 56%
- E2-driven transactivation / transcription of GFP [1]: reduced E2-driven transactivation
